Experimental data taken from patent US20250114338A1, “TETRAHYDRO-PYRIDO[3,4-b]INDOLE ESTROGEN RECEPTOR MODULATORS AND USES THEREOF” (Genentech, Inc., priority 2014, published 2025).

The compounds below were run on ER-alpha MCF7 (assay: ER-alpha MCF7 HCS EC50; stated as measured by in vitro cell proliferation assays of Examples 902 and 903). Settings: Homo sapiens, MCF7, MCF7 cells; Table 2.
Type: cell-based
Summary of the method: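 MCF7 cells seeded 1000-2000 cells/well for 16 h, then treated with nine-point 1:2 DMSO dilution series in quadruplicate at 37 °C, 5% CO2 for 4 days. Viable cells quantified by CellTiter-Glo ATP luminescence; EC50 calculated. Controls: fulvestrant at final 100 nM, DMSO 0.2% v/v.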

Structure (SMILES)	EC50
C[C@@H]1Cc2c([nH]c3ccccc23)[C@@H](c2c(F)cc(OCCN3CC(CF)C3)cc2F)N1C(=O)c1ccccc1 [Example 185, [(1R,3R)-1-[2,6-difluoro-4-[2-[3-(fluoromethyl)azetidin-1-yl]ethoxy]phenyl]-3-methyl-1,3,4,9-tetrahydropyrido[3,4-b]indol-2-yl]-phenyl-methanone]	14 nM
C[C@@H]1Cc2c([nH]c3ccccc23)[C@@H](c2c(F)cc(OCCN3CC(CF)C3)cc2F)N1CC1CC1 [Example 186, (1R,3R)-2-(cyclopropylmethyl)-1-[2,6-difluoro-4-[2-[3-(fluoromethyl)azetidin-1-yl]ethoxy]phenyl]-3-methyl-1,3,4,9-tetrahydropyrido[3,4-b]indole]	2 nM
C[C@@H]1Cc2c([nH]c3ccccc23)[C@@H](c2c(F)cc(OC3CN(CCC4CC4)C3)cc2F)N1CC(C)(C)F [Example 187, (1R,3R)-1-[4-[1-(2-cyclopropylethyl)azetidin-3-yl]oxy-2,6-difluoro-phenyl]-2-(2-fluoro-2-methyl-propyl)-3-methyl-1,3,4,9-tetrahydropyrido[3,4-b]indole]	1 nM
C=CCN1CC(Oc2cc(F)c([C@@H]3c4[nH]c5ccccc5c4C[C@@H](C)N3CC(C)(C)F)c(F)c2)C1 [Example 188, (1R,3R)-1-[4-(1-allylazetidin-3-yl)oxy-2,6-difluoro-phenyl]-2-(2-fluoro-2-methyl-propyl)-3-methyl-1,3,4,9-tetrahydropyrido[3,4-b]indole]	0.128 nM
C[C@@H]1Cc2c([nH]c3ccccc23)[C@@H](c2c(F)cc(OC3CN(CC4CCC4)C3)cc2F)N1CC(C)(C)F [Example 189, (1R,3R)-1-[4-[1-(cyclobutylmethyl)azetidin-3-yl]oxy-2,6-difluoro-phenyl]-2-(2-fluoro-2-methyl-propyl)-3-methyl-1,3,4,9-tetrahydropyrido[3,4-b]indole]	1 nM
CC(C)CCN1CC(Oc2cc(F)c([C@@H]3c4[nH]c5ccccc5c4C[C@@H](C)N3CC(C)(C)F)c(F)c2)C1 [Example 190, (1R,3R)-1-[2,6-difluoro-4-(1-isopentylazetidin-3-yl)oxy-phenyl]-2-(2-fluoro-2-methyl-propyl)-3-methyl-1,3,4,9-tetrahydropyrido[3,4-b]indole]	2 nM
CCC(C)CN1CC(Oc2cc(F)c([C@@H]3c4[nH]c5ccccc5c4C[C@@H](C)N3CC(C)(C)F)c(F)c2)C1 (stereo partly drawn) [Example 191, (1R,3R)-1-(2,6-difluoro-4-((1-(2-methylbutyl)azetidin-3-yl)oxy)phenyl)-2-(2-fluoro-2-methylpropyl)-3-methyl-2,3,4,9-tetrahydro-1H-pyrido[3,4-b]indole]	0.267 nM
CCCC(C)N1CC(Oc2cc(F)c([C@@H]3c4[nH]c5ccccc5c4C[C@@H](C)N3CC(C)(C)F)c(F)c2)C1 (stereo partly drawn) [Example 192, (1R,3R)-1-(2,6-difluoro-4-((1-(pentan-2-yl)azetidin-3-yl)oxy)phenyl)-2-(2-fluoro-2-methylpropyl)-3-methyl-2,3,4,9-tetrahydro-1H-pyrido[3,4-b]indole]	1 nM
C[C@@H]1Cc2c([nH]c3ccccc23)[C@@H](c2c(F)cc(OC3CN(C4CCC4)C3)cc2F)N1CC(C)(C)F [Example 193, (1R,3R)-1-[4-(1-cyclobutylazetidin-3-yl)oxy-2,6-difluoro-phenyl]-2-(2-fluoro-2-methyl-propyl)-3-methyl-1,3,4,9-tetrahydropyrido[3,4-b]indole]	0.484 nM
C[C@@H]1Cc2c([nH]c3ccccc23)[C@@H](c2c(F)cc(OC3CN(C4COC4)C3)cc2F)N1CC(C)(C)F [Example 194, (1R,3R)-1-[2,6-difluoro-4-[1-(oxetan-3-yl)azetidin-3-yl]oxy-phenyl]-2-(2-fluoro-2-methyl-propyl)-3-methyl-1,3,4,9-tetrahydropyrido[3,4-b]indole]	0.077 nM
C[C@@H]1Cc2c([nH]c3ccccc23)[C@@H](c2c(F)cc(OC3CN(C4CC4)C3)cc2F)N1CC(C)(C)F [Example 195, (1R,3R)-1-[4-(1-cyclopropylazetidin-3-yl)oxy-2,6-difluoro-phenyl]-2-(2-fluoro-2-methyl-propyl)-3-methyl-1,3,4,9-tetrahydropyrido[3,4-b]indole]	0.165 nM
C[C@@H]1Cc2c([nH]c3ccccc23)[C@@H](c2c(F)cc(SC3CN(CCCF)C3)cc2F)N1CC(C)(C)F [Example 196, (1R,3R)-1-[2,6-difluoro-4-[1-(3-fluoropropyl)azetidin-3-yl]sulfanyl-phenyl]-2-(2-fluoro-2-methyl-propyl)-3-methyl-1,3,4,9-tetrahydropyrido[3,4-b]indole]	0.271 nM
CC(C)CN1[C@H](c2c(F)cc(OCCN3CC(CF)C3)cc2F)c2[nH]c3ccccc3c2C[C@H]1C [Example 197, (1R,3R)-1-[2,6-difluoro-4-[2-[3-(fluoromethyl)azetidin-1-yl]ethoxy]phenyl]-2-isobutyl-3-methyl-1,3,4,9-tetrahydropyrido[3,4-b]indole]	1 nM
C[C@@H]1Cc2c([nH]c3ccccc23)[C@@H](c2c(F)cc(OCCN3CC(CF)C3)cc2F)N1C[C@H](C)c1ccccc1 [Example 198, (1R,3R)-1-(2,6-difluoro-4-(2-(3-(fluoromethyl)azetidin-1-yl)ethoxy)phenyl)-3-methyl-2-((R)-2-phenylpropyl)-2,3,4,9-tetrahydro-1H-pyrido[3,4-b]indole]	2 nM
C[C@H](CN1[C@H](c2c(F)cc(OCCN3CC(CF)C3)cc2F)c2[nH]c3ccccc3c2C[C@H]1C)c1ccccc1 [Example 199, (1R,3R)-1-(2,6-difluoro-4-(2-(3-(fluoromethyl)azetidin-1-yl)ethoxy)phenyl)-3-methyl-2-((S)-2-phenylpropyl)-2,3,4,9-tetrahydro-1H-pyrido[3,4-b]indole]	2.32 nM
CCCN1CC(Oc2cc(F)c([C@@H]3c4[nH]c5ccccc5c4C[C@@H](C)N3CC(C)C)c(F)c2)C1 [Example 200, (1R,3R)-1-[2,6-difluoro-4-(1-propylazetidin-3-yl)oxy-phenyl]-2-isobutyl-3-methyl-1,3,4,9-tetrahydropyrido[3,4-b]indole]	0.408 nM
C[C@@H]1Cc2c([nH]c3ccccc23)[C@@H](c2ccc(OC3CN(CCCF)C3)cc2)N1CC(C)(C)F [Example 201, (1R,3R)-2-(2-fluoro-2-methyl-propyl)-1-[4-[1-(3-fluoropropyl)azetidin-3-yl]oxyphenyl]-3-methyl-1,3,4,9-tetrahydropyrido[3,4-b]indole]	0.315 nM
C[C@@H]1Cc2c([nH]c3ccccc23)[C@@H](c2c(F)cc(OC3CN(CCCF)C3)cc2F)N1S(C)(=O)=O [Example 202, (1R,3R)-1-[2,6-difluoro-4-[1-(3-fluoropropyl)azetidin-3-yl]oxy-phenyl]-3-methyl-2-methylsulfonyl-1,3,4,9-tetrahydropyrido[3,4-b]indole]	0.1 nM
C[C@@H]1Cc2c([nH]c3ccccc23)[C@@H](c2c(F)cc(OC[C@H](C)N3CC(C(F)F)C3)cc2F)N1CC(C)(C)F [Example 204, (1R,3R)-1-[4-[(2S)-2-[3-(difluoromethyl)azetidin-1-yl]propoxy]-2,6-difluoro-phenyl]-2-(2-fluoro-2-methyl-propyl)-3-methyl-1,3,4,9-tetrahydropyrido[3,4-b]indole]	0.371 nM
C[C@@H]1Cc2c([nH]c3ccccc23)[C@@H](c2c(F)cc(OCCN3CC(F)(CF)C3)cc2F)N1CC(C)(C)F [Example 205, (1R,3R)-1-[2,6-difluoro-4-[2-[3-fluoro-3-(fluoromethyl)azetidin-1-yl]ethoxy]phenyl]-2-(2-fluoro-2-methyl-propyl)-3-methyl-1,3,4,9-tetrahydropyrido[3,4-b]indole]	0.375 nM
C[C@@H]1Cc2c([nH]c3ccccc23)[C@@H](c2c(F)cc(OCCN3CC(CF)C3)cc2F)N1C(=O)CCC#N [Example 206, 4-[(1R,3R)-1-[2,6-difluoro-4-[2-[3-(fluoromethyl)azetidin-1-yl]ethoxy]phenyl]-3-methyl-1,3,4,9-tetrahydropyrido[3,4-b]indol-2-yl]-4-oxo-butanenitrile]	31 nM
C[C@@H]1Cc2c([nH]c3ccccc23)[C@@H](c2c(F)cc(OCCN3CC(CF)C3)cc2F)N1CC1CCCCC1 [Example 207, (1R,3R)-2-(cyclohexylmethyl)-1-[2,6-difluoro-4-[2-[3-(fluoromethyl)azetidin-1-yl]ethoxy]phenyl]-3-methyl-1,3,4,9-tetrahydropyrido[3,4-b]indole]	13 nM
C[C@@H]1Cc2c([nH]c3ccccc23)[C@@H](c2c(F)cc(OC3CN(CCC4COC4)C3)cc2F)N1CC(C)(C)F [Example 208, (1R,3R)-1-[2,6-difluoro-4-[1-[2-(oxetan-3-yl)ethyl]azetidin-3-yl]oxy-phenyl]-2-(2-fluoro-2-methyl-propyl)-3-methyl-1,3,4,9-tetrahydropyrido[3,4-b]indole]	0.066 nM
C[C@@H]1Cc2c([nH]c3ccccc23)[C@@H](c2c(F)cc(OC3CN(CC4CCCCC4)C3)cc2F)N1CC(C)(C)F [Example 209, (1R,3R)-1-[4-[1-(cyclohexylmethyl)azetidin-3-yl]oxy-2,6-difluoro-phenyl]-2-(2-fluoro-2-methyl-propyl)-3-methyl-1,3,4,9-tetrahydropyrido[3,4-b]indole]	8 nM
C[C@@H]1Cc2c([nH]c3ccccc23)[C@@H](c2ccc(OCCN3CC(CF)C3)cc2Cl)N1CC(C)(C)F [Example 210, (1R,3R)-1-[2-chloro-4-[2-[3-(fluoromethyl)azetidin-1-yl]ethoxy]phenyl]-2-(2-fluoro-2-methyl-propyl)-3-methyl-1,3,4,9-tetrahydropyrido[3,4-b]indole]	0.1 nM
C[C@@H]1Cc2c([nH]c3ccccc23)[C@@H](c2ccc(OC3CN(CCCF)C3)cc2Cl)N1CC(C)(C)F [Example 211, (1R,3R)-1-[2-chloro-4-[1-(3-fluoropropyl)azetidin-3-yl]oxy-phenyl]-2-(2-fluoro-2-methyl-propyl)-3-methyl-1,3,4,9-tetrahydropyrido[3,4-b]indole]	0.2 nM
